Tested on: subjects with MDD at imminent risk for suicide
Details: 84 mg
Excerpt: Among 68 randomized subjects, 66 were included in the safety analysis set (defined as receiving at least one dose of study medication in the double-blind phase). […] All safety subjects (N=66) were included in the intent-to-treat (ITT) analysis set (defined as receiving at least one dose of study medication during the double-blind phase and having both the baseline and the Day 1, 4-hour postdose evaluation for the MADRS total score). Forty-nine subjects were included in the safety (FU) analysis set (defined as all subjects who have at least 1 visit during the follow up phase).

CN[C@]1(c2ccccc2Cl)CCCCC1=O [esketamine, (S)-2-(2-chlorophenyl)-2-(methylamino)cyclohexanone]
Serious TEAE: Agitation, subjects (%) (double-blind phase, N = 35): 2.9% | Serious TEAE: Depressive symptom, subjects (%) (double-blind phase, N = 35): 2.9% | Serious TEAE: Psychiatric disorders, subjects (%) (double-blind phase, N = 35): 11.4% | Serious TEAE: Suicidal ideation, subjects (%) (double-blind phase, N = 35): 5.7% | Subjects with 1 or more serious TEAE (%) (double-blind phase, N = 35): 11.4% | Subjects with TEAE leading to drug withdrawn (%) (double-blind phase, N = 35): 14.3% | TEAE Acne, subjects (%) (double-blind phase, N = 35): (5.7%) | TEAE Agitation, subjects (%) (double-blind phase, N = 35): (8.6%) | TEAE Anxiety, subjects (%) (double-blind phase, N = 35): (17.1%) | TEAE Blood pressure increased, subjects (%) (double-blind phase, N = 35): (5.7%) | TEAE Diarrhea, subjects (%) (double-blind phase, N = 35): (8.6%) | TEAE Diplopia, subjects (%) (double-blind phase, N = 35): (5.7%) | TEAE Dissociation, subjects (%) (double-blind phase, N = 35): (31.4%) | TEAE Dizziness postural, subjects (%) (double-blind phase, N = 35): (5.7%) | TEAE Dizziness, subjects (%) (double-blind phase, N = 35): (34.3%) | TEAE Dry mouth, subjects (%) (double-blind phase, N = 35): (8.6%) | TEAE Dysgeusia, subjects (%) (double-blind phase, N = 35): (31.4%) | TEAE Ear and labyrinth disorders, subjects (%) (double-blind phase, N = 35): (25.7%) | TEAE Euphoric mood, subjects (%) (double-blind phase, N = 35): (11.4%) | TEAE Eye disorders, subjects (%) (double-blind phase, N = 35): (20.0%) | TEAE Fatigue, subjects (%) (double-blind phase, N = 35): (5.7%) | TEAE Feeling abnormal, subjects (%) (double-blind phase, N = 35): (8.6%) | TEAE Feeling cold, subjects (%) (double-blind phase, N = 35): (5.7%) | TEAE Flatulence, subjects (%) (double-blind phase, N = 35): (2.9%) | TEAE Gastrointestinal disorders, subjects (%) (double-blind phase, N = 35): (54.3%) | TEAE General disorders and administration site conditions, subjects (%) (double-blind phase, N = 35): (28.6%) | TEAE Headache, subjects (%) (double-blind phase, N = 35): (31.4%) | TEAE Hyperacusis, subjects (%) (double-blind phase, N = 35): (5.7%) | TEAE Hyperhidrosis, subjects (%) (double-blind phase, N = 35): (5.7%) | TEAE Hypoesthesia oral, subjects (%) (double-blind phase, N = 35): (5.7%) | TEAE Hypoesthesia, subjects (%) (double-blind phase, N = 35): (8.6%) | TEAE Infections and infestations, subjects (%) (double-blind phase, N = 35): (2.9%) | TEAE Insomnia, subjects (%) (double-blind phase, N = 35): (8.6%) | TEAE Investigations, subjects (%) (double-blind phase, N = 35): (14.3%) | TEAE Nasal congestion, subjects (%) (double-blind phase, N = 35): (2.9%) | TEAE Nasal discomfort, subjects (%) (double-blind phase, N = 35): (8.6%) | TEAE Nausea, subjects (%) (double-blind phase, N = 35): (37.1%) | TEAE Nervous system disorders, subjects (%) (double-blind phase, N = 35): (71.4%) | TEAE Oropharyngeal pain, subjects (%) (double-blind phase, N = 35): (5.7%) | TEAE Paresthesia oral, subjects (%) (double-blind phase, N = 35): (5.7%) | TEAE Paresthesia, subjects (%) (double-blind phase, N = 35): (17.1%) | TEAE Pharyngeal hypoesthesia, subjects (%) (double-blind phase, N = 35): (5.7%) | TEAE Psychiatric disorders, subjects (%) (double-blind phase, N = 35): (57.1%) | TEAE Rash, subjects (%) (double-blind phase, N = 35): (2.9%) | TEAE Renal and urinary disorders, subjects (%) (double-blind phase, N = 35): (2.9%) | TEAE Respiratory, thoracic and mediastinal disorders, subjects (%) (double-blind phase, N = 35): (25.7%) | TEAE Sedation, subjects (%) (double-blind phase, N = 35): (17.1%) | TEAE Skin and subcutaneous tissue disorders, subjects (%) (double-blind phase, N = 35): (14.3%) | TEAE Somnolence, subjects (%) (double-blind phase, N = 35): (11.4%) | TEAE Suicidal ideation, subjects (%) (double-blind phase, N = 35): (5.7%) | TEAE Throat irritation, subjects (%) (double-blind phase, N = 35): (8.6%) | TEAE Tinnitus, subjects (%) (double-blind phase, N = 35): (5.7%) | TEAE Vertigo, subjects (%) (double-blind phase, N = 35): (11.4%) | TEAE Vision blurred, subjects (%) (double-blind phase, N = 35): (8.6%) | TEAE Vomiting, subjects (%) (double-blind phase, N = 35): (20.0%) | TEAE Weight increased, subjects (%) (double-blind phase, N = 35): (5.7%) | TEAE leading to study discontinuation: Aggression, subjects (%) (double-blind phase, N = 35): 2.9% | TEAE leading to study discontinuation: Agitation, subjects (%) (double-blind phase, N = 35): 2.9% | TEAE leading to study discontinuation: Cardiac disorders, subjects (%) (double-blind phase, N = 35): 2.9% | TEAE leading to study discontinuation: Dizziness, subjects (%) (double-blind phase, N = 35): 2.9% | TEAE leading to study discontinuation: Dysgeusia, subjects (%) (double-blind phase, N = 35): 2.9% | TEAE leading to study discontinuation: Dyspnea, subjects (%) (double-blind phase, N = 35): 2.9% | TEAE leading to study discontinuation: Gastrointestinal disorders, subjects (%) (double-blind phase, N = 35): 2.9% | TEAE leading to study discontinuation: Nausea, subjects (%) (double-blind phase, N = 35): 2.9% | TEAE leading to study discontinuation: Nervous system disorders, subjects (%) (double-blind phase, N = 35): 5.7% | TEAE leading to study discontinuation: Psychiatric disorders, subjects (%) (double-blind phase, N = 35): 5.7% | TEAE leading to study discontinuation: Respiratory, thoracic and mediastinal disorders, subjects (%) (double-blind phase, N = 35): 2.9% | TEAE leading to study discontinuation: Ventricular extrasystoles, subjects (%) (double-blind phase, N = 35): 2.9% | Total no. subjects with TEAE leading to study discontinuation (%) (double-blind phase, N = 35): 14.3% | Subjects with possibly related TEAE (%) (double-blind phase, N = 35, possible, probable, very likely): 82.9% | AE Abdominal pain, subjects (%) (follow up phase, N = 27): (3.7%) | AE Abdominal tenderness, subjects (%) (follow up phase, N = 27): (3.7%)
